Assays:
[1] = Cmax of aliskiren hemifumarate following 2 week oral dosing of aliskiren hemifumarate at 50 mg.Kg-1 level studied on day 14 in female Callithrix jacchus; format: ADME, organism-based; details: marmoset, plasma
[2] = AUC (0-24h)/dose of aliskiren hemifumarate following 4 week oral dietary dosing of aliskiren hemifumarate at 1000 mg.Kg-1 level in female mouse; format: ADME, organism-based, CB6F1-TGrasH2, Plasma; details: in vivo
[3] = Cmax/dose of aliskiren hemifumarate following 4 week oral dietary dosing of aliskiren hemifumarate at 1500 mg.Kg-1 level in female mouse; format: ADME, organism-based, CB6F1-TGrasH2; details: in vivo, 672 h
hERG (KCNH2) = hERG (KCNH2) (Homo sapiens, UniProt Q12809); experiment: Effects of 10 uM aliskiren hemifumarate on current through cloned hERG channel expressed in human embryonic kidney cell; format: cell-based; set-up: conc 10 uM, dose level Low; details: HEK293 cells that express cloned hERG channel, read-out: Inhibitory activity
Sequence of hERG (KCNH2) (Q12809 whole entry): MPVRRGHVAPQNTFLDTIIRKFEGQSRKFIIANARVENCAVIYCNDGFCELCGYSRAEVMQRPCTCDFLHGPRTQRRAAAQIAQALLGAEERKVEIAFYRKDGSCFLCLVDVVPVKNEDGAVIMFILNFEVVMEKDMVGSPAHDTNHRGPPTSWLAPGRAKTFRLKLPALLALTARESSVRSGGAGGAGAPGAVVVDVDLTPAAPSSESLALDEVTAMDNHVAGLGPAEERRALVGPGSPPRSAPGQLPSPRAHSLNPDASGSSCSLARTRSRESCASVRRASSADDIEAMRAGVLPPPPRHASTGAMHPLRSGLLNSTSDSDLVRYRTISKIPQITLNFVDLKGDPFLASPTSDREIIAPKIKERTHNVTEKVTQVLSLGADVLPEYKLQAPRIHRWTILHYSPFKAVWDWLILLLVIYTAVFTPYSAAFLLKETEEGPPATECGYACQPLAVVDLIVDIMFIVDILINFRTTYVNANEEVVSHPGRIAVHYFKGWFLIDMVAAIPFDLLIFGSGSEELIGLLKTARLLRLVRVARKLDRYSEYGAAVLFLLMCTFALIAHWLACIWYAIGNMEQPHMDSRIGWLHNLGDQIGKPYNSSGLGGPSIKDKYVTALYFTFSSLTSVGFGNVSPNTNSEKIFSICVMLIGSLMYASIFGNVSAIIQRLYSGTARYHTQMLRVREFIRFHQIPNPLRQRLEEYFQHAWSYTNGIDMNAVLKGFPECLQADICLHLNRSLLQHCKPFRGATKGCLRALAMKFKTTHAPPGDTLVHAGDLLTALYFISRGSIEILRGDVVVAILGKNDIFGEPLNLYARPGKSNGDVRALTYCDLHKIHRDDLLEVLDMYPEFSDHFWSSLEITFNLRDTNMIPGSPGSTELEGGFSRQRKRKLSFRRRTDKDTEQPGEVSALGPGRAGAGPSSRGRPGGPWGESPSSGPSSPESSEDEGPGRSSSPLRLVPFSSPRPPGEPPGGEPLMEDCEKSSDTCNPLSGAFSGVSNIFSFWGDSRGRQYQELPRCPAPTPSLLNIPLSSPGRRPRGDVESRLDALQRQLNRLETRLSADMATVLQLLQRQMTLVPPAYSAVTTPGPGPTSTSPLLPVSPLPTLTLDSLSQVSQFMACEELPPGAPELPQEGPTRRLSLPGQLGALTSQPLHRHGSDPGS

[4] = Hepatic blood flow (0-168h) of unlabeled aliskiren hemifumarate following single intravenous administration of aliskiren hemifumarate at 1 mg.Kg-1 level in marmoset; format: ADME, organism-based, Callithrix jacchus, Liver; details: in vivo
[5] = AUC (0-24h)/dose of aliskiren hemifumarate following 4 week oral dietary dosing of aliskiren hemifumarate at 500 mg.Kg-1 level in male mouse; format: ADME, organism-based, CB6F1-TGrasH2, Plasma; details: in vivo
[6] = Cmaxspec of aliskiren hemifumarate following 2 week oral dosing of aliskiren hemifumarate at 10 mg.Kg-1 level studied on day 1 in female Callithrix jacchus; format: ADME, organism-based, Plasma; details: marmoset, in vivo, 336 h
[7] = Tmax of aliskiren hemifumarate following 2 week oral dosing of aliskiren hemifumarate at 10 mg.Kg-1 level studied on […] in male Callithrix jacchus; format: ADME, organism-based; details: marmoset, plasma
[8] = AUC (0-24h) of aliskiren hemifumarate following 4 week oral dietary dosing of aliskiren hemifumarate at 500 mg.Kg-1 level in male mouse; format: ADME, organism-based; details: CB6F1-TGrasH2, mouse, plasma
[9] = Tmax of aliskiren hemifumarate following 4 week oral dietary dosing of aliskiren hemifumarate at 2000 mg.Kg-1 level in female mouse; format: ADME, organism-based; details: CB6F1-TGrasH2, mouse, in vivo
[10] = AUC (0-24h)/dose of aliskiren hemifumarate following 4 week oral dietary dosing of aliskiren hemifumarate at 500 mg.Kg-1 level in female mouse; format: ADME, organism-based, CB6F1-TGrasH2, Plasma; details: in vivo
[11] = Effect of 2 week oral dosing of aliskiren hemifumarate at 100 mg.Kg-1 level on plasma alkaline phosphatase level in female Callithrix jacchus; format: toxicity, organism-based; details: marmoset, 336 h
[12] = %Unchanged aliskiren in faeces following 10 day repeated oral administration of [14C] aliskiren hemifumarate at 100 mg.Kg-1 level studied in rat; format: ADME, organism-based, Albino HAN:WIST, Feces; details: in vivo, 240 h
[13] = Terminal elimination half-life of SPP100 following single oral dose of SPP100 600 mg capsule studied in healthy human; format: ADME, organism-based; details: plasma
[14] = %Unchanged aliskiren in urine following 10 day repeated oral administration of [14C] aliskiren hemifumarate at 100 mg.Kg-1 level studied in rat; format: ADME, organism-based, Albino HAN:WIST; details: in vivo, 240 h
[15] = % SPP100 recovered in hydrolysed following single intravenous administration of 10 mg.Kg-1 [14C] aliskiren hemifumarate in male rat; format: ADME, organism-based, HAN:WIST(SPF), Bile; details: in vivo
[16] = % of radioactivity recovered as aliskiren in faeces following oral administration of [14C] aliskiren hemifumarate at 100 mg.Kg-1 level in rat; format: ADME, organism-based, Albino HAN:WIST, Feces; details: in vivo
CYP1A2 = target: T1, CYP1A2 (Homo sapiens, UniProt P05177); experiment: Inhibitory activity of 20 uM SPP100 on 489 Pmoles of cDNA-derived CYP1A2 enzyme in microsome prepared from human lymphoblastoid cell line; format: ADME, microsomes; set-up: conc 20 uM, interact cpd conc 50 uM; details: probe phenacetin
T1 sequence (P05177 whole entry): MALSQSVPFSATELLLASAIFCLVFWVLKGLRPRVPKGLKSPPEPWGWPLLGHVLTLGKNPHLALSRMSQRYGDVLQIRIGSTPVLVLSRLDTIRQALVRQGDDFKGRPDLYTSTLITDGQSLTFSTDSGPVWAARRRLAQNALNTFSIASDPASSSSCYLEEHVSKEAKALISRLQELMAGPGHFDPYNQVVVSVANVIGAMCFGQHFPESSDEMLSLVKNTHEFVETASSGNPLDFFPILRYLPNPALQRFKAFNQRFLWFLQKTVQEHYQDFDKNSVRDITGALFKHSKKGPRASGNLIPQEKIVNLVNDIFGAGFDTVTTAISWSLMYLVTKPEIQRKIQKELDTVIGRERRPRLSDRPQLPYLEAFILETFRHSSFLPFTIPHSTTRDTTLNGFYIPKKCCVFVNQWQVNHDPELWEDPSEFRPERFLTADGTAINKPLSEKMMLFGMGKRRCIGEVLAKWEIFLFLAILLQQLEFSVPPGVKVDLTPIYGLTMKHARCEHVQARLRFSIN

[17] = AUC of SPP100 following single intravenous dose of [14C] aliskiren hemifumarate at 1 mg.Kg-1 level in marmoset; format: ADME, organism-based, Callithrix jacchus, Plasma; details: in vivo
[18] = % SPP100 in urine and faeces following single oral dose of 300 mg [14C]SPP100 studied in healthy men; format: ADME, organism-based, Urine/Feces; details: human, in vivo, at 300 mg
[19] = Mean excretion of radioactivity (48-72h) in urine and faeces following single intravenous dose of 10 mg.Kg-1 [14C] aliskiren hemifumarate in rat; format: ADME, organism-based, Albino HAN:WIST, Urine/Feces; details: in vivo
[20] = Concentration of radioactivity in the kidney medulla following repeated oral administration of [14C] aliskiren hemifumarate at 100 mg.Kg-1 level studied at 24h after 3rd dose in rat; format: ADME, organism-based, Albino HAN:WIST, Renal medulla; details: in vivo
[21] = Excretion of radioactivity (24-48h) in faeces following single intravenous dose of 10 mg.Kg-1 [14C] aliskiren hemifumarate in rat; format: ADME, organism-based, Albino HAN:WIST, Feces; details: in vivo
[22] = AUC/dose (0-168h) of total radioactivity following single intravenous administration of [14C] aliskiren hemifumarate at 1 mg.Kg-1 level in marmoset; format: ADME, organism-based, Callithrix jacchus, Plasma; details: in vivo
[23] = Excretion (0-96h) of 14C-radioactivity in faeces following single oral dose of 300 mg [14C]SPP100 studied in healthy men; format: ADME, organism-based, Feces; details: human, in vivo, at 300 mg
[24] = Excretion of radioactivity (48-72h) in faeces following single oral dose of 100 mg.Kg-1 [14C] aliskiren hemifumarate in rat; format: ADME, organism-based, Albino HAN:WIST, Feces; details: in vivo
[25] = Plasma concentration of [14C] aliskiren hemifumarate in first 24h following single oral dose of [14C] aliskiren hemifumarate at 500 mg.Kg-1 level in mouse; format: ADME, organism-based, TgRasH2; details: in vivo
[26] = Excretion (168h) of radioactivity in urine following intravenous administration of [14C] aliskiren hemifumarate at 10 mg.Kg-1 level in rat; format: ADME, organism-based, Lister-Hooded; details: in vivo
[27] = % of radioactivity (24h) recovered in faeces following single intravenous administration of 10 mg.Kg-1 [14C] aliskiren hemifumarate in male rat; format: ADME, organism-based, HAN:WIST(SPF), Feces; details: in vivo
[28] = Excretion of radioactivity (72-96h) in urine following single oral dose of 100 mg.Kg-1 [14C] aliskiren hemifumarate in rat; format: ADME, organism-based, Albino HAN:WIST; details: in vivo
[29] = Excretion of radioactivity (0-384h) in urine following 10 day repeated oral administration of [14C] aliskiren hemifumarate at 100 mg.Kg-1 level studied in rat; format: ADME, organism-based, Albino HAN:WIST; details: in vivo
[30] = Concentration of radioactivity in the colon wall following repeated oral administration of [14C] aliskiren hemifumarate at 100 mg.Kg-1 level studied at 2h after 3rd dose in rat; format: ADME, organism-based, Albino HAN:WIST; details: in vivo
[31] = AUC (0-96 or 0-168h) of total radioactivity following single intravenous administration of [14C] aliskiren hemifumarate at 1 mg.Kg-1 level in marmoset; format: ADME, organism-based, Callithrix jacchus, Plasma; details: in vivo

COCCCOc1cc(C[C@@H](C[C@H](N)[C@@H](O)C[C@H](C(=O)NCC(C)(C)C(N)=O)C(C)C)C(C)C)ccc1OC.COCCCOc1cc(C[C@@H](C[C@H](N)[C@@H](O)C[C@H](C(=O)NCC(C)(C)C(N)=O)C(C)C)C(C)C)ccc1OC.O=C(O)/C=C/C(=O)O [ALISKIREN FUMARATE]
Cmax [1]: 10100 ng/mL | AUC normalised [2]: 2.28 ((ng/mL).hours)/(mg/kg/day) | Cmax normalised [3]: 0.68 (ng/mL)/(mg/kg/day) | inhibition at 10 µM (hERG (KCNH2)): 1.4% | Hepatic blood flow [4]: 2.8 L·h/kg | AUC normalised [5]: 3.41 ((ng/mL).hours)/(mg/kg/day) | Cmax normalised [6]: 0.396 (ug/ml)/(mg/kg) | Tmax [7]: 2 h | AUC(0-t) at 24 h [8]: 1700 ng·h/mL | Tmax [9]: 0.5 h | AUC normalised [10]: 1.71 ((ng/mL).hours)/(mg/kg/day) | ALP_CHANGE_TO [11]: OUTCOME = 2-fold increase over initial values. No animals died during the study.

COCCCOc1cc(C[C@@H](C[C@H](N)[C@@H](O)C[C@H](C(=O)NCC(C)(C)C(N)=O)C(C)C)C(C)C)ccc1OC
Compound recovery [12]: 80% | half-life [13]: 34 h | Compound recovery [14]: 43% | Compound recovery [15]: 61.8% | Compound recovery [16]: > 40% | inhibition at 20 µM (CYP1A2): 5% | AUC [17]: 23806 ng·h/mL | Compound recovery [18]: 79.8%

COCCCOc1cc(C[C@@H](C[C@H](N)[C@@H](O)C[C@H](C(=O)NCC([14CH3])([14CH3])C(N)=O)C(C)C)C(C)C)ccc1OC.O=C(O)/C=C/C(=O)O
Radiolabel recovery [19]: 5.05% | Radiolabel recovery [20]: OUTCOME = Detected | Radiolabel recovery [21]: 28.2% | AUC normalised [22]: 52.92 (umol.h/L)/(mg/kg) | Radiolabel recovery [23]: 88.17% | Radiolabel recovery [24]: 0.36% | Compound recovery [25]: 56% | Radiolabel recovery [26]: 10.4% | Radiolabel recovery [27]: 4.6% | Radiolabel recovery [28]: 0.01% | Radiolabel recovery [29]: 0.3% | Radiolabel recovery [30]: OUTCOME = Observed, VALUE = Highest radioactivity concentration was observed | AUC [31]: 52.92 µM·h

Reference: ChEMBL document CHEMBL3508693 (2016)
